Laboratory results as given in PMC11274943, “Discovery of Benzisothiazolone Derivatives as Bifunctional Inhibitors of HIV-1 Reverse Transcriptase DNA Polymerase and Ribonuclease H Activities” (Biomolecules, 2024).

System: G190A HIV-1 RT DNA-dependent DNA polymerase activity
Assay: biochemical
Type: biochemical
Conditions: G190A RT; fold resistance IC50 mutant/IC50 WT
Method: WT (wild-type) RT, and RTs harboring the NNRTI-resistant mutations K101E, K103N, Y181C, Y188C, G190A and P236L, were overexpressed and purified to homogeneity as described previously. The RT concentration was determined spectrophotometrically at 280 nm using an absorbance coefficient of 260,450 M^−1·cm^−1. The 7-hydroxy tropolone derivative 19,616 (2,7-dihydroxy 2,4,6-cyclo-heptatrien-1-one) was purchased from Molecular Diversity Preservation International (Basel, Switzerland). […] The benzisothiazolone derivatives were procured from MolPort (New York, NY, USA) or Enamine (Kyiv, Ukraine). The DNA and RNA oligonucleotides were synthesized and purified by Integrated DNA Technologies (Coralville, IA, USA). All other reagents were of the highest quality available and were used without further purification.
DDDP assays were also performed using a QuantiFluor ONE based spectrophotometric assay to detect double-stranded DNA synthesized by recombinant HIV-1 RT [14]. The reaction contained 40 nM of a template/primer comprising a 200 nt DNA template (5′-[…] […]-[…]-[…] […] […]-3′) annealed to an 18-nucleotide DNA primer (5′-[…]-3′), and a mix of 50 mM Tris-HCl pH 7.8, 50 mM NaCl, 10 mM MgCl2 and 50 µM dNTP. The reactions were stopped after 45 min by adding the detection reagent containing 1 × Quant-Fluor One (Promega) and 12.5 mM ethylenediaminetet-raacetic acid; the samples were transferred to a 96-well black plate, and fluorescence was measured at excitation/emission (490/535 nm).

CCN(CC)S(=O)(=O)c1cccc(-n2sc3ccccc3c2=O)c1 [Compound 4, N,N-diethyl-3-(3-oxobenzo[d]isothiazol-2(3H)-yl)benzenesulfonamide]
Inhibition of RT DNA polymerase activity Fold-R: 1.5

CCOC(=O)Cc1csc(-n2sc3ccccc3c2=O)n1 [Compound 2, ethyl 2-(2-(3-oxobenzo[d]isothiazol-2(3H)-yl)thiazol-4-yl)acetate]
Inhibition of RT DNA polymerase activity Fold-R: 0.7
